Source: the supplement of paper PMC4862054

Columns and labels:
BT-474 [1] = assay: normalised viability (% of control), CellTiter-Blue; higher = more viable cells (about 100 = DMSO control); conditions: 100 nM; incubation time: 72 h
Experimental: (§1)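 DSRT, CellTiter-Blue viability, 72 h incubation. Signal is normalised to DMSO and benzethonium chloride controls. Value is the normalised response at dose 3.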

BT-549 [2] = assay: as above; conditions: 100 nM; incubation time: 72 h
Experimental: as §1

CAL-120 [3] = assay: as above; conditions: 100 nM; incubation time: 72 h
Experimental: as §1

CAL-148 [4] = assay: as above; conditions: 10 nM; incubation time: 72 h
Experimental: as §1

CAL-51 [5] = assay: as above; conditions: 10 nM; incubation time: 72 h
Experimental: as §1

CAL-85-1 [6] = assay: as above; conditions: 10 nM; incubation time: 72 h
Experimental: as §1

DU-4475 [7] = assay: as above; conditions: 10 nM; incubation time: 72 h
Experimental: as §1

HCC1143 [8] = assay: as above; conditions: 100 nM; incubation time: 72 h
Experimental: as §1

HCC1599 = assay: as above; conditions: 100 nM; incubation time: 72 h
Experimental: as §1

HCC1937 = assay: as above; conditions: 100 nM; incubation time: 72 h
Experimental: as §1

HDQ-P1 [9] = assay: as above; conditions: 10 nM; incubation time: 72 h
Experimental: as §1

Hs578T = assay: as above; conditions: 100 nM; incubation time: 72 h
Experimental: as §1

MDA-MB-231 [10] = assay: as above; conditions: 100 nM; incubation time: 72 h
Experimental: as §1

MDA-MB-436 = assay: as above; conditions: 100 nM; incubation time: 72 h
Experimental: as §1

MDA-MB-453 [11] = assay: as above; conditions: 10 nM; incubation time: 72 h
Experimental: as §1

MDA-MB-468 [12] = assay: as above; conditions: 100 nM; incubation time: 72 h
Experimental: as §1

MFM-223 [13] = assay: as above; conditions: 100 nM; incubation time: 72 h
Experimental: as §1

SK-BR-3 [14] = assay: as above; conditions: 100 nM; incubation time: 72 h
Experimental: as §1

BT-474 [15] = assay: normalised viability (% of control), CellTiter-Blue; higher = more viable cells (100 = DMSO, 0 = benzethonium chloride kill control); conditions: 1 nM; incubation time: 72 h
Summary of the method: (§2)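 Compound dissolved in 5 µl medium was pre-loaded into 384-well plates, and breast cancer cell lines in 20 µl suspension were seeded on top and incubated 72 h. After adding 2.5 µl CellTiter-Blue reagent for 2 h at 37 °C, fluorescence was read at 560/590 nm. Plates were normalised to vehicle (100) and a positive kill control (0), with Z'-factor quality control. Each value is normalised viability at a single listed concentration from the series.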

BT-549 [16] = assay: as above; conditions: 1 nM; incubation time: 72 h
Summary of the method: as §2

CAL-120 [17] = assay: as above; conditions: 1 nM; incubation time: 72 h
Summary of the method: as §2

CAL-148 [18] = assay: as above; conditions: 1 nM; incubation time: 72 h
Summary of the method: as §2

CAL-51 [19] = assay: as above; conditions: 1 nM; incubation time: 72 h
Summary of the method: as §2

CAL-85-1 [20] = assay: as above; conditions: 1 nM; incubation time: 72 h
Summary of the method: as §2

DU-4475 [21] = assay: as above; conditions: 1 nM; incubation time: 72 h
Summary of the method: as §2

HCC1143 [22] = assay: as above; conditions: 1 nM; incubation time: 72 h
Summary of the method: as §2

HDQ-P1 [23] = assay: as above; conditions: 1 nM; incubation time: 72 h
Summary of the method: as §2

MDA-MB-231 [24] = assay: as above; conditions: 1 nM; incubation time: 72 h
Summary of the method: as §2

MDA-MB-453 [25] = assay: as above; conditions: 1 nM; incubation time: 72 h
Summary of the method: as §2

MDA-MB-468 [26] = assay: as above; conditions: 1 nM; incubation time: 72 h
Summary of the method: as §2

MFM-223 [27] = assay: as above; conditions: 1 nM; incubation time: 72 h
Summary of the method: as §2

SK-BR-3 [28] = assay: as above; conditions: 1 nM; incubation time: 72 h
Summary of the method: as §2

| SMILES | normalised viability (BT-474 [1]) | normalised viability (BT-549 [2]) | normalised viability (CAL-120 [3]) | normalised viability (CAL-148 [4]) | normalised viability (CAL-51 [5]) | normalised viability (CAL-85-1 [6]) | normalised viability (DU-4475 [7]) | normalised viability (HCC1143 [8]) | normalised viability (HCC1599) | normalised viability (HCC1937) | normalised viability (HDQ-P1 [9]) | normalised viability (Hs578T) | normalised viability (MDA-MB-231 [10]) | normalised viability (MDA-MB-436) | normalised viability (MDA-MB-453 [11]) | normalised viability (MDA-MB-468 [12]) | normalised viability (MFM-223 [13]) | normalised viability (SK-BR-3 [14]) | normalised viability (BT-474 [15]) | normalised viability (BT-549 [16]) | normalised viability (CAL-120 [17]) | normalised viability (CAL-148 [18]) | normalised viability (CAL-51 [19]) | normalised viability (CAL-85-1 [20]) | normalised viability (DU-4475 [21]) | normalised viability (HCC1143 [22]) | normalised viability (HDQ-P1 [23]) | normalised viability (MDA-MB-231 [24]) | normalised viability (MDA-MB-453 [25]) | normalised viability (MDA-MB-468 [26]) | normalised viability (MFM-223 [27]) | normalised viability (SK-BR-3 [28]) |
| --- | --- | --- | --- | --- | --- | --- | --- | --- | --- | --- | --- | --- | --- | --- | --- | --- | --- | --- | --- | --- | --- | --- | --- | --- | --- | --- | --- | --- | --- | --- | --- | --- |
| COc1cc2nccc(Oc3ccc(NC(=O)Nc4cc(C)on4)c(Cl)c3)c2cc1OC [Tivozanib] | 112% | 90.4% | 106% | 95.6% | 99% | 103% | 115% | 113% | 119% | 88.2% | 79% | 91.5% | 91.1% | 88.1% | 94.5% | 96.8% | 80.8% | 105% | 95% | 81.1% | 106% | 103% | 101% | 114% | 102% | 103% | 97.6% | 88% | 97.4% | 98.3% | 100% | 102% |
| CC1=C(/C=C/C(C)=C/C=C/C(C)=C/C(=O)O)C(C)(C)CCC1 [Tretinoin] | 122% | 107% | 77.7% | 92.1% | 100% | 99.2% | 100% | 86.2% | 92.2% | 98.9% | 125% | 91.5% | 94% | 99.5% | 92.9% | 115% | 86.2% | 87.1% | 91.1% | 98.4% | 86.9% | 103% | 93.5% | 87.1% | 91.8% | 94.9% | 114% | 97.2% | 100% | 109% | 98% | 97.7% |
| C1CN1c1nc(N2CC2)nc(N2CC2)n1 [Triethylenemelamine] | 113% | 95.7% | 109% | 103% | 100% | 101% | 102% | 105% | 106% | 88.5% | 102% | 107% | 115% | 105% | 96.6% | 101% | 93.8% | 95.5% | 117% | 107% | 103% | 108% | 101% | 107% | 104% | 101% | 109% | 96.2% | 104% | 102% | 100% | 99% |
| Oc1ncc(N(CCCl)CCCl)c(O)n1 [Uracil mustard] | 106% | 111% | 87.7% | 95.8% | 98.6% | 103% | 98.6% | 84.8% | 83.5% | 105% | 107% | 116% | 100% | 102% | 107% | 108% | 90.6% | 88.2% | 86.6% | 101% | 82.3% | 103% | 90.7% | 88.9% | 88.3% | 95.7% | 110% | 99.4% | 99.1% | 104% | 97.4% | 97.3% |
| CCCCC(=O)OCC(=O)[C@]1(O)Cc2c(O)c3c(c(O)c2[C@@H](O[C@H]2C[C@H](NC(=O)C(F)(F)F)[C@H](O)[C@H](C)O2)C1)C(=O)c1c(OC)cccc1C3=O [Valrubicin] | 109% | 85.2% | 77.3% | 91.6% | 92.2% | 84.2% | 89.4% | 86.4% | 92.2% | 73.7% | 120% | 79.7% | 77% | 122% | 103% | 92.1% | 91.9% | 57.8% | 92.9% | 107% | 92.9% | 88.8% | 89.7% | 83.5% | 93.9% | 86.5% | 96.8% | 79.7% | 97.6% | 84.3% | 90.3% | 85.5% |
| CCCS(=O)(=O)Nc1ccc(F)c(C(=O)c2c[nH]c3ncc(-c4ccc(Cl)cc4)cc23)c1F [Vemurafenib] | 111% | 98.2% | 92.7% | 98.1% | 97.1% | 98.6% | 107% | 80.1% | 98% | 96.4% | 87.6% | 110% | 94.6% | 81.6% | 107% | 104% | 87.5% | 96.9% | 99.8% | 114% | 95.3% | 98.4% | 94.4% | 91.6% | 88% | 93.8% | 96.3% | 113% | 89.8% | 110% | 90.7% | 92.2% |
